Where two headings read alike, the source gives them in different places.
Test system: Dengue-2 (Strain New Guinea C)
Test: Dengue-2 viral yield assay in Vero cells
Type: cell-based
Conditions: Dengue virus, read-out: Activity (anti-dengue 2 viral activity, EC50)
Experimental: Compounds that were active in the primary screen were tested for activity in viral yield assays. […] Vero cells in 12-well plates were infected with dengue-2 virus at a multiplicity of infection (MOI) of 0.1, treated with compound (or DMSO as a control), incubated at 37° C., harvested 48 hours post infection and titered on Vero cells as described above. The EC50 was calculated through ExcelFit. Those compounds with activity below 1 μM are indicated with “A”, those with activity between 1 and 10 μM are indicated with “B”, and those with activity between 10 and 25 μM with “C”.

[1] = Dengue-2 strain New Guinea C, Vero cells, MOI 0.1, harvested 48 hours post infection, viral yield

Structure (SMILES)	EC50 [1]	EC50 (Vero, 48 h)
Nc1ccc2nc(SCC(=O)Nc3ccc4nc(SCC(=O)N5CCOCC5)sc4c3)sc2c1 [Compound 31, 2-(6-Amino-benzothiazol-2-ylsulfanyl)-N-[2-(2-morpholin-4-yl-2-oxo-ethylsulfanyl)-benzothiazol-6-yl]-acetamide]	> 25 µM	–
O=C(Nc1ccc2nc(SCC(=O)N3CCOCC3)sc2c1)c1ccc(Cl)cc1Cl [Compound 6, 2,4-Dichloro-N-[2-(2-morpholin-4-yl-2-oxo-ethylsulfanyl)-benzothiazol-6-yl]-benzamide]	–	1 to 10 µM
O=C(CSc1nc2ccc(/N=C/c3ccc(F)cc3)cc2s1)N1CCOCC1 [Compound 26, 2-(6-{[1-(4-Fluoro-phenyl)-meth-(E)-ylidene]-amino}-benzothiazol-2-ylsulfanyl)-1-morpholin-4-yl-ethanone]	> 25 µM	–
CCOc1ccc2nc(SCC(=O)N3CCN(c4ccccc4)CC3)sc2c1 [Compound 14, 2-(6-Ethoxy-benzothiazol-2-ylsulfanyl)-1-(4-phenyl-piperazin-1-yl)-ethanone]	10 to 25 µM	–
Cc1cccc(C(=O)Nc2ccc3nc(SCC(=O)N4CCOCC4)sc3c2)c1 [Compound 13, 3-Methyl-N-[2-(2-morpholin-4-yl-2-oxo-ethylsulfanyl)-benzothiazol-6-yl]-benzamide]	–	10 to 25 µM
O=C(CSc1nc2ccccc2o1)N1CCN(c2ccccc2)CC1 [Compound 76, 2-(Benzooxazol-2-ylsulfanyl)-1-(4-phenyl-piperazin-1-yl)-ethanone]	–	> 25 µM
Cc1ccc(-c2nnc(N3CCN(C(=O)CSc4nc5ccccc5o4)CC3)c3ccccc23)cc1 [Compound 78, 2-(Benzooxazol-2-ylsulfanyl)-1-[4-(4-p-tolyl-phthalazin-1-yl)-piperazin-1-yl]-ethanone]	> 25 µM	–
Cc1ccc(C(=O)Nc2ccc3nc(SCC(=O)N4CCCCC4)sc3c2)cc1 [Compound 56, 4-Methyl-N-[2-(2-oxo-2-piperidin-1-yl-ethylsulfanyl)-benzothiazol-6-yl]-benzamide]	> 25 µM	–
NC(=O)C1(N2CCCCC2)CCN(C(=O)CSc2nc3ccccc3s2)CC1 [Compound 9, 1′-[2-(Benzothiazol-2-ylsulfanyl)-acetyl]-[1,4′]bipiperidinyl-4′-carboxylic acid amide]	–	1 to 10 µM
O=C(CSc1nc2ccccc2[nH]1)N1CCCCCC1 [Compound 43, 1-Azepan-1-yl-2-(1H-benzoimidazol-2-ylsulfanyl)-ethanone]	> 25 µM	–
O=C(CSc1nc2ccc([N+](=O)[O-])cc2s1)N1CCN(c2ccccc2)CC1 [Compound 52, 2-(6-Nitro-benzothiazol-2-ylsulfanyl)-1-(4-phenyl-piperazin-1-yl)-ethanone]	> 25 µM	–
O=C(CSc1nc2ccc(/N=C/c3c4ccccc4cc4ccccc34)cc2s1)N1CCOCC1 [Compound 19, 2-(6-{[1-Anthracen-9-yl-meth-(E)-ylidene]-amino}-benzothiazol-2-ylsulfanyl)-1-morpholin-4-yl-ethanone]	> 25 µM	–
O=C(CCc1ccccc1)Nc1ccc2nc(SCC(=O)N3CCOCC3)sc2c1 [Compound 1, N-[2-(2-Morpholin-4-yl-2-oxo-ethylsulfanyl)-benzothiazol-6-yl]-3-phenyl-propionamide]	< 1 µM	–
O=C(CSc1nc2ccc(/N=C/c3ccc(Br)cc3)cc2s1)N1CCOCC1 [Compound 17, 2-(6-{[1-(4-Bromo-phenyl)-meth-(E)-ylidene]-amino}-benzothiazol-2-ylsulfanyl)-1-morpholin-4-yl-ethanone]	> 25 µM	–
O=C(Nc1ccc2nc(SCC(=O)N3CCOCC3)sc2c1)c1ccccc1F [Compound 27, 2-Fluoro-N-[2-(2-morpholin-4-yl-2-oxo-ethylsulfanyl)-benzothiazol-6-yl]-benzamide]	> 25 µM	–
O=C(CSc1nc2ccc(/N=C/c3ccc(I)cc3)cc2s1)N1CCOCC1 [Compound 25, 2-(6-{[1-(4-Iodo-phenyl)-meth-(E)-ylidene]-amino}-benzothiazol-2-ylsulfanyl)-1-morpholin-4-yl-ethanone]	> 25 µM	–
O=C(Cc1cccc2ccccc12)Nc1ccc2nc(SCC(=O)N3CCOCC3)sc2c1 [Compound 38, N-[2-(2-Morpholin-4-yl-2-oxo-ethylsulfanyl)-benzothiazol-6-yl]-2-naphthalen-1-yl-acetamide]	> 25 µM	–
O=C(CSc1nc2ccccc2o1)N1CCN(Cc2ccccc2)CC1 [Compound 11, 2-(Benzooxazol-2-ylsulfanyl)-1-(4-benzyl-piperazin-1-yl)-ethanone]	1 to 10 µM	–
O=C(CSc1nc2ccc([N+](=O)[O-])cc2s1)N1CCCC1 [Compound 55, 2-(6-Nitro-benzothiazol-2-ylsulfanyl)-1-pyrrolidin-1-yl-ethanone]	> 25 µM	–
CCOc1ccc2nc(SCC(=O)N3CCc4ccccc4C3)sc2c1 [Compound 7, 1-(3,4-Dihydro-1H-isoquinolin-2-yl)-2-(6-ethoxy-benzothiazol-2-ylsulfanyl)-ethanone]	–	1 to 10 µM
O=C(CSc1nc2ccccc2s1)N1CCN(c2ccc(F)cc2)CC1 [Compound 71, 2-(Benzothiazol-2-ylsulfanyl)-1-[4-(4-fluoro-phenyl)-piperazin-1-yl]-ethanone]	> 25 µM	–
NC(=O)C1CCN(C(=O)CSc2nc3ccccc3s2)CC1 [Compound 66, 1-[2-(Benzothiazol-2-ylsulfanyl)-acetyl]-piperidine-4-carboxylic acid amide]	–	> 25 µM
CCCCOc1ccc(C(=O)Nc2ccc3nc(SCC(=O)N4CCOCC4)sc3c2)cc1 [Compound 22, 4-Butoxy-N-[2-(2-morpholin-4-yl-2-oxo-ethylsulfanyl)-benzothiazol-6-yl]-benzamide]	> 25 µM	–
O=C(CSc1nc2ccc([N+](=O)[O-])cc2s1)N1CCCCC1 [Compound 49, 2-(6-Nitro-benzothiazol-2-ylsulfanyl)-1-piperidin-1-yl-ethanone]	> 25 µM	–
CCN(CC)C(=O)CSc1nc2cc(C)ccc2[nH]1 [Compound 62, N,N-Diethyl-2-(5-methyl-1H-benzoimidazol-2-ylsulfanyl)-acetamide]	> 25 µM	–
COc1ccc(C(=O)Nc2ccc3nc(SCC(=O)N4CCOCC4)sc3c2)cc1OC [Compound 64, 3,4-Dimethoxy-N-[2-(2-morpholin-4-yl-2-oxo-ethylsulfanyl)-benzothiazol-6-yl]-benzamide]	> 25 µM	–
O=C(CSc1nc2ccccc2[nH]1)N1CCc2ccccc2C1 [Compound 61, 2-(1H-Benzoimidazol-2-ylsulfanyl)-1-(3,4-dihydro-1H-isoquinolin-2-yl)-ethanone]	> 25 µM	–
O=C(CSc1nc2ccccc2o1)N1CCN(c2ccc(Cl)cc2)CC1 [Compound 80, 2-(Benzooxazol-2-ylsulfanyl)-1-[4-(4-chloro-phenyl)-piperazin-1-yl]-ethanone]	–	> 25 µM
CCN(CC)C(=O)CSc1nc2ccc(N3C(=O)c4ccccc4C3=O)cc2s1 [Compound 30, 2-[6-(1,3-Dioxo-1,3-dihydro-isoindol-2-yl)-benzothiazol-2-ylsulfanyl]-N,N-diethyl-acetamide]	> 25 µM	–
O=C(CSc1nc2ccccc2s1)N1CCCCC1 [Compound 41, 2-(Benzothiazol-2-ylsulfanyl)-1-piperidin-1-yl-ethanone]	–	> 25 µM

— patent publication US9029376B2, “Small molecule inhibitors for the treatment or prevention of dengue virus infection” (Siga Technologies, Inc., priority 2008, dated 2015)
